As a reminder, the IC50 is the concentration that gives 50% inhibition. A low value points to greater potency in that assay.

The target of the test is BRD4(BD1) (Homo sapiens (Human), UniProt O60885). The experiment in a line: BRD4 AlphaLisa binding assay. The following applies: biotinylated H4-tetraacetyl peptide. From the text: IC50 Measurements for Inhibitors Using BRD4 AlphaLisa Binding Assay
(Bead proximity is the source of the signal in Alpha formats.)
In turn, `Cn1cc(-c2ccccc2)c2cc[nH]c2c1=O` [Example 1, 6-methyl-4-phenyl-1H-pyrrolo[2,3-c]pyridin-7(6H)-one] came in with a 50% inhibitory concentration (IC50) of 540 nM. This counts as sub-micromolar.

`Cn1cc(-c2ccc3c(c2)CC(=O)N3)c2cc[nH]c2c1=O` [Example 2, 6-methyl-4-(2-oxoindolin-5-yl)-1H-pyrrolo[2,3-c]pyridin-7-one] gave an IC50 of 210 nM.

On to `Cn1cc(-c2ccc3c(c2)CCCN3C(=O)OC(C)(C)C)c2cc[nH]c2c1=O` [Example 4, tert-butyl 6-(6-methyl-7-oxo-1H-pyrrolo[2,3-c]pyridin-4-yl)-3,4-dihydro-2H-quinoline-1-carboxylate], for which the 50% inhibitory concentration (IC50) was 110 nM. Compared with the last molecule, the IC50 is about 1.9-fold lower.

In turn, `Cn1cc(-c2ccc3c(c2)N2C(=O)CCC2C(=O)N3)c2cc[nH]c2c1=O` (stereo not shown) [Example 9, 8-(6-methyl-7-oxo-6,7-dihydro-1H-pyrrolo[2,3-c]pyridin-4-yl)-3,3a-dihydropyrrolo[1,2-a]quinoxaline-1,4(2H,5H)-dione] yielded an IC50 of 310 nM.

With `CC1Nc2cc(-c3cn(C)c(=O)c4[nH]ccc34)ccc2NC1=O` (stereo not shown) [Example 10, 3-methyl-6-(6-methyl-7-oxo-1H-pyrrolo[2,3-c]pyridin-4-yl)-3,4-dihydro-1H-quinoxalin-2-one], the IC50 was determined as 110 nM.

Molecule `CC1CC(=O)Nc2ccc(-c3cn(C)c(=O)c4[nH]ccc34)cc2N1` (stereo not shown) [Example 13, 4-methyl-7-(6-methyl-7-oxo-1H-pyrrolo[2,3-c]pyridin-4-yl)-1,3,4,5-tetrahydro-1,5-benzodiazepin-2-one] came in with an IC50 of 170 nM.

Take `CC(C)c1nc2cc(-c3cn(C)c(=O)c4[nH]ccc34)ccc2[nH]c1=O` [Example 14, 3-isopropyl-6-(6-methyl-7-oxo-1H-pyrrolo[2,3-c]pyridin-4-yl)-1H-quinoxalin-2-one]: the IC50 came out at 110 nM.

`Cn1cc(-c2ccc3c(c2)N2CCCC2CC(=O)N3)c2cc[nH]c2c1=O` (stereo not shown) [Example 15, 2-(6-methyl-7-oxo-1H-pyrrolo[2,3-c]pyridin-4-yl)-5,7,7a,8,9,10-hexahydropyrrolo[2,1-d][1,5]benzodiazepin-6-one] registered an IC50 of 81 nM.

For `Cn1cc(-c2ccc3c(c2)NC(c2cccs2)CC(=O)N3)c2cc[nH]c2c1=O` (stereo not shown) [Example 17, 7-(6-methyl-7-oxo-1H-pyrrolo[2,3-c]pyridin-4-yl)-4-(2-thienyl)-1,3,4,5-tetrahydro-1,5-benzodiazepin-2-one], the IC50 was determined as 58 nM.

The molecule `Cn1cc(-c2cccc(C(N)=O)c2)c2cc[nH]c2c1=O` [Example 21, 3-(6-methyl-7-oxo-1H-pyrrolo[2,3-c]pyridin-4-yl)benzamide] registered an IC50 of 180 nM.

The molecule `Cn1cc(-c2cccc(C#N)c2)c2cc[nH]c2c1=O` [Example 23, 3-(6-methyl-7-oxo-1H-pyrrolo[2,3-c]pyridin-4-yl)benzonitrile] returned an IC50 of 150 nM.

`Cn1cc(-c2ccc(CO)cc2)c2cc[nH]c2c1=O` [Example 25, 4-[4-(hydroxymethyl)phenyl]-6-methyl-1H-pyrrolo[2,3-c]pyridin-7-one] returned a 50% inhibitory concentration (IC50) of 710 nM.

`Cn1cc(-c2ccc(C(=O)N3CC(F)C3)cc2)c2cc[nH]c2c1=O` [Example 27, 4-[4-(3-fluoroazetidine-1-carbonyl)phenyl]-6-methyl-1H-pyrrolo[2,3-c]pyridin-7-one] came in with an IC50 of 84 nM.

In the case of `Cn1cc(-c2ccc(C(=O)N3CCCC3)cc2)c2cc[nH]c2c1=O` [Example 29, 6-methyl-4-[4-(pyrrolidine-1-carbonyl)phenyl]-1H-pyrrolo[2,3-c]pyridin-7-one], the IC50 amounted to 280 nM.

`CC1CCN(C(=O)c2ccc(-c3cn(C)c(=O)c4[nH]ccc34)cc2)CC1` [Example 31, 6-methyl-4-[4-(4-methylpiperidine-1-carbonyl)phenyl]-1H-pyrrolo[2,3-c]pyridin-7-one]: the IC50 was found to be 170 nM.

In the case of `CC(=O)N1CCN(C(=O)c2ccc(-c3cn(C)c(=O)c4[nH]ccc34)cc2)CC1` [Example 32, 4-[4-(4-acetylpiperazine-1-carbonyl)phenyl]-6-methyl-1H-pyrrolo[2,3-c]pyridin-7-one], the concentration for half-maximal inhibition (IC50) is 320 nM.

The values above are taken from patent US10150767B2, “Therapeutic compounds and uses thereof” (priority 2014, dated 2018).
